# “Also recorded” adds a separate entry of the source. Like-named read-outs stand apart in the source and are kept apart here.
# Assays:
# [1] = Pharmacokinetic study in ICR mice; type: in vivo, mouse; conditions: for MRT last: read-out: MRT0-t; for MRT inf: read-out: MRT0-∞
# Protocol: The pharmacokinetic properties were evaluated by PRECEDO. China. SPF ICR mice (18–20 g, 6–8 weeks, n = 3 per group) were used to carried out pharmacokinetics determinations. […] Colleting samples at different times after treatment. Plasma was obtained from the blood samples by centrifugation (6000 rpm for 3 min at 2–8 °C) and stored at −20 °C. The LC-MS/MS (Shimadzu, API 4000) method was used to determine the concentration of each animal at each time point.
# AML-12 hepatocytes = experiment: Toxicity on normal AML-12 hepatocytes; type: cell-based
# From the text: MV-4-11 and MDA-MB-468 cell lines were used to evaluate the anti-proliferative activities of the selected target compounds (CellTiter-Glo assay), and AML-12 hepatocytes were selected to evaluate the toxicity of the compounds.
# MV-4-11 and MDA-MB-468 cell line were derived from Cell Resources Center of Shanghai Academy of life sciences (Shanghai, China). AML-12 cell line was brough from Nanjing Lixing Biotechnology Co. Ltd. (Nanjing, China). MDA-MB-468 cell line was maintained in Dulbecco’s Modified Eagle Medium (DMEM, KeyGEN Bio) that contained 10% FBS (Biochanel, China), MV-4-11 cell line was maintained in Iscove’s Modified Dulbecco Medium containing; 10% FBS (Biochannel, China), AML-12 cell line was maintained in DMEM/F-12 (1:1) (KeyGEN, China; 1% ITS Liquid Media Supplement (Sigma, America), dexamethasone 40 ng/mL (Sigma, USA) and 10% FBS (Biochannel, China). All cells were grown in a humidified incubator containing 5% carbon dioxide at 37 ℃. All compounds were dispersed in dimethyl sulfoxide (Sigma), the concentration of the reserve solution was 10 mmol/L and the solution was stored in a refrigerator at −20 ℃. SDMA (# 13222S), β- Tubulin (#2146S) and horseradish peroxidase (HRP)-linked secondary antibodies anti-rabbit or anti-mouse IgG were purchased from Cell Signaling Technology (CST), and the anti-PRMT5 (ab109451) antibody was purchased from ABCAM. […]
# PRMT5 = biological target: T1, PRMT5 (Homo sapiens, UniProt O14744); experiment: PRMT5 enzymatic activity inhibition assay (radioactive methylation, 3H-SAM to H4R3 peptide); type: biochemical
# T1 construct: The final concentrations of PRMT5 enzyme: 2.5 nm/L
# T1 sequence (O14744 whole entry): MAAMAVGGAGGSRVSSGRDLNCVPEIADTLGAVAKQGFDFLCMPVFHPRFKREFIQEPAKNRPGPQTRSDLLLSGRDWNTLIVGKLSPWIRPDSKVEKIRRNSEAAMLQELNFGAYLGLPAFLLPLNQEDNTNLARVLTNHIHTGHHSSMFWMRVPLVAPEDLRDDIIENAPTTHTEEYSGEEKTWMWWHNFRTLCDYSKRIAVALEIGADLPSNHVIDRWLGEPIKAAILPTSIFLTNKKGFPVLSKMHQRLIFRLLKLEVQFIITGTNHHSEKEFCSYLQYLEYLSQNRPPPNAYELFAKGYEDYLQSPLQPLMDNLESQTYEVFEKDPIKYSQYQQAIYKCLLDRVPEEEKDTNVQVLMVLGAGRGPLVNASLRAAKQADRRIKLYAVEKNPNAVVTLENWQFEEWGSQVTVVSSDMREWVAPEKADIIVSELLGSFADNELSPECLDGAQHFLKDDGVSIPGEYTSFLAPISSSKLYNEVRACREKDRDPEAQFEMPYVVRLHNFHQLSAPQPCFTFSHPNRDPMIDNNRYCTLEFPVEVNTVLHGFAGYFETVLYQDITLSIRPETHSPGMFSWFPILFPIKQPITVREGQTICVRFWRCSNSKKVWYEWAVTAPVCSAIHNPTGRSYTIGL
# T1 sequence (Q9BQA1 whole entry partner): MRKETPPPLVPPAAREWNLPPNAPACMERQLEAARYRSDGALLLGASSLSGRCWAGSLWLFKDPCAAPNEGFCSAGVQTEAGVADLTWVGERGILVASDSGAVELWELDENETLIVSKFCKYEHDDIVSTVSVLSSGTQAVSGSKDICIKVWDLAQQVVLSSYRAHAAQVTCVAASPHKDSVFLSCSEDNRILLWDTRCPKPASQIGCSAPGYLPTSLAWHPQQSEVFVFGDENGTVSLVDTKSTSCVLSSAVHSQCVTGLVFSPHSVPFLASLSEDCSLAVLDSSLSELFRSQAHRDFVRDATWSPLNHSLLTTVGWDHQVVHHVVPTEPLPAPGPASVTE
# Protocol: The PRMT5 enzymatic activity assay was conducted by Chempartner Life science. The final concentrations of PRMT5 enzyme: 2.5 nm/L; ^3H-SAM: 0.3 μM/L; histone peptide (H4R3S1ac): 0.3 μM/L. The protocol of radioactive methylation assay was as follows: (1) Prepare 1× assay buffer (modified Tris Buffer). (2) Transfer compounds to assay plate using Echo in 100% DMSO. DMSO’s final fraction is 1%. (3) Prepare enzyme and ^3H-SAM Mix solution in 1× assay buffer. (4) Prepare substrate (peptide sequence Ac-[…]-K(Biotin)) solution in 1× assay buffer. (5) Transfer 15 μL of enzyme and ^3H-SAM solution to assay plate. (6) Incubate at room temperature for 60 min. (7) Add 10 μL of substrate solution to each well to start the reaction, and for low control transfer 10 μL of 1× assay buffer. (8) Incubate at room temperature for 120 min. (9) Add cold SAM in 1× assay buffer to make the stop mix. (10) Stop reaction with addition of 5 µL per well of stop solution. (11) Transfer 25 µL of volume per well to Flash plate from assay plate. (12) Incubate for 1 h minimum at room temperature.
# (13) Read plate on Micro beta. (14) Data process—get the data in Excel to obtain inhibition values using Equation (1).Inhibitory rate% = (Max-Signal)/ (Max-Min) × 100(1)
# Fit the data in XL-Fit to obtain IC50 values using Equation (2): Y = Bottom + (Top-Bottom)/(1 + (IC50/X) […]) Y is% inhibition and X is compound concentration(2)
# [2] = ICR, mouse, plasma, iv, 2 mg/kg, male mice, Table S1, mean ± SD
# [3] = ICR, mouse, plasma, oral gavage, 10 mg/kg, male mice, Table S2, mean
# [4] = male, ICR, mouse, plasma, iv, 2 mg/kg, ICR mouse, Table 4
# [5] = male, ICR, mouse, plasma, iv, 2 mg/kg, male mice, Table S1, mean ± SD
# [6] = male, ICR, mouse, plasma, po, 10 mg/kg, ICR mouse, Table 4
# [7] = male, ICR, mouse, plasma, po, 10 mg/kg, oral gavage, male mice, Table S2, mean
smiles,measurement,setting,value
"O=C(NC[C@H](O)CN1CCc2ccccc2C1)c1ccc2c(c1)c1c(n2CC2COC2)CCCC1 [Compound 20, (S)-N-(3-(3,4-dihydroisoquinolin-2(1H)-yl)-2-hydroxypropyl)-9-(oxetan-3-ylmethyl)-2,3,4,9-tetrahydro-1H-carbazole-6-carboxamide]",AUC(0-t),[1]; [2],1030 ± 68.5 ng·h/mL
same,C0,[1]; [2],1940 ± 330 ng/mL
same,Tmax,[1]; [2],4.8 min
same,half-life,[1]; [2],29.4 ± 13.8 min
same,MRT last,[1]; [2],26.4 ± 3 min
same,MRT inf,[1]; [2],0.45 ± 0.05 h
same,AUC(0-t),[1]; [3],728 ng·h/mL
same,Tmax,[1]; [3],15 min
same,bioavailability,[1]; [3],14.5%
same,half-life,[1]; [3],364 min
same,MRT last,[1]; [3],73.2 min
same,MRT inf,[1]; [3],1.91 h
same,T1/2,"[1]; iv, 2 mg/kg, ICR mouse, Table 4",0.49 h
same,AUC(0-inf),[1]; [4],1030 ng·h/mL
same,Cmax,[1]; [4],1690 ng/mL
same,clearance,[1]; [4],32.4 mL/min/kg
same,Vd,"[1]; male, ICR, mouse, plasma, iv, 2 mg/kg, iv, 2 mg/kg, ICR mouse, Table 4, read-out: Vss",1.35 L/kg
same,Vd,"[1]; male, ICR, mouse, plasma, iv, 2 mg/kg, iv, 2 mg/kg, male mice, Table S1, mean ± SD, read-out: Vz",1.35 ± 0.556 L/kg
same,AUC(0-inf),[1]; [5],1030 ± 64.8 ng·h/mL
same,Cmax,[1]; [5],1690 ± 133 ng/mL
same,clearance,[1]; [5],32.4 mL/min/kg
same,AUC(0-inf),[1]; [6],747 ng·h/mL
same,Cmax,[1]; [6],1270 ng/mL
same,AUC(0-inf),[1]; [7],747 ng·h/mL
same,Cmax,[1]; [7],1270 ng/mL
same,bioavailability,"[1]; male, plasma, po 10 mg/kg vs iv 2 mg/kg, ICR mouse, Table 4",14.5%
same,T1/2,"[1]; po, 10 mg/kg, ICR mouse, Table 4",6.06 h
same,toxicity to normal AML-12 hepatocytes (in words),AML-12 hepatocytes,almost no toxicity; also recorded: no significant cytotoxicity
same,inhibition at 10 µM,"AML-12 hepatocytes; Mus musculus, AML12, read-out: AML-12 Inhibition Rate% @10 μM",-30.5 ± 9.4%
same,inhibition at 20 µM,"AML-12 hepatocytes; Mus musculus, AML12, read-out: AML-12 Inhibition Rate% @20 μM",-27 ± 1.2%
same,IC50,PRMT5,4.2 ± 1.3 nM
same,inhibition at 0.1 µM,"PRMT5; 100 nM compound, read-out: Inhibition Rate% @100 nM",83 ± 12%

# From publication PMC9572541, “Design, Synthesis and Biological Evaluation of Novel and Potent Protein Arginine Methyltransferases 5 Inhibitors for Cancer Therapy” (Molecules, 2022)
